In brackets after ≈: the same amount, converted by molar mass.
What was measured:
resistant vegetative PG = settings: one case, concomitantly with oral prednisone; cited from earlier work
PDE4A10 = PDE4A10 (Homo sapiens, UniProt P27815); type: biochemical
LPS-induced TNF-α = LPS-induced TNF-α in ferrets after single oral administration; settings: LPS 3 mg/kg ip
PDE4B1 = PDE4B1 (Homo sapiens, UniProt Q07343); type: biochemical
Description: (§1) Enzyme Preparations: Partially purified human recombinant phosphodiesterases (PDEs) were obtained by cloning cDNA and expressing in S. frugiperda insect cells using a baculovirus expression system. Cells are harvested from culture by centrifuging at 400×g for 5 minutes. Cell pellet is resuspended in 20 ml of RIPA Buffer (150 mM NaCl, 10 mM Tris, 0.1% NP-40, pH8.3), 4 ml/200 ml of culture, plus protease inhibitors (100 μl/10 ml) and incubated on ice for 10-20 minutes then spun at 3500×g for 10 minutes at 4° C. Supernatant is kept and the pellet thrown away.
(§2) Tritium-labelled cyclic AMP is hydrolysed to 5′-AMP o by PDE. The 5′-AMP is then further hydrolysed to adenosine by nucleotidase in snake venom. An anion-exchange resin binds all charged nucleotides and leaves [^3H]adenosine as the only labelled compound to be counted by liquid scintillation.
(§3) 50 μl of diluted PDE enzyme was incubated with 50 μl of [^3H]-cAMP (specific activity 25 Ci/mmol) and 11 μl of 50% DMSO (or compound dilution) for 20 minutes at 30° C. The enzyme was diluted in 20 mM Tris HCl pH7.4 (×2.2 final concentration) and [3H]-cAMP was diluted in 10 mM MgCl2, 40 mM Tris HCl pH 7.4 (×2.2 final concentration). Reactions were carried out in Greiner 96 deep well 1 ml master-block. The plates were centrifuged for 9 seconds before the 20 minutes incubation. […] After incubation 200 μl Dowex resin (1×8, 200-400 mesh) was added and the plate shaken for 20 minutes then centrifuged for 3 minutes at 1000×g. 5 μl of supernatant was removed and added to 200 μl of MicroScint-20 in white plates (Greiner 96 well Optiplate) and shaken for 30 minutes before reading on Perkin Elmer TopCount Scintillation Counter. […] values were calculated using GraphPad Prism software (version 8).

PDE4B2 = PDE4B2 (Homo sapiens, UniProt Q07343); type: biochemical
Chain of PDE4B2 (Q07343 1-564 isoform Q07343-2): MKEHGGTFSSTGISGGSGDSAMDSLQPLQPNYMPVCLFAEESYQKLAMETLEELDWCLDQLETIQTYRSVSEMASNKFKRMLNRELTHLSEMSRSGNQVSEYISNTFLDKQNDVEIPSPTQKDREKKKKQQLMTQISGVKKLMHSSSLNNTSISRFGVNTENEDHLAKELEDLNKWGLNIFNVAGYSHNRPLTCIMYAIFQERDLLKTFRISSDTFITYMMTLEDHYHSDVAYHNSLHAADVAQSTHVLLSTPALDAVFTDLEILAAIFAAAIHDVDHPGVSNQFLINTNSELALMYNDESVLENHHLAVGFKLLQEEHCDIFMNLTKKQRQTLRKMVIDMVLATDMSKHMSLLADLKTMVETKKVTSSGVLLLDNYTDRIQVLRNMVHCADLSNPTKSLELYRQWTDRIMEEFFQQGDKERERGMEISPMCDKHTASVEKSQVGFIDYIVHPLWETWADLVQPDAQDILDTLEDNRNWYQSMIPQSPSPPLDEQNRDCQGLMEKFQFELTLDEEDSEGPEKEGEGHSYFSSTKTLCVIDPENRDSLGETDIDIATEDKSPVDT
Description: as §1, §2, §3

PDE4D3 = PDE4D3 (Homo sapiens, UniProt Q08499); type: biochemical; settings: value generated by extrapolation of data
Chain of PDE4D3 (Q08499 1-673 isoform Q08499-2): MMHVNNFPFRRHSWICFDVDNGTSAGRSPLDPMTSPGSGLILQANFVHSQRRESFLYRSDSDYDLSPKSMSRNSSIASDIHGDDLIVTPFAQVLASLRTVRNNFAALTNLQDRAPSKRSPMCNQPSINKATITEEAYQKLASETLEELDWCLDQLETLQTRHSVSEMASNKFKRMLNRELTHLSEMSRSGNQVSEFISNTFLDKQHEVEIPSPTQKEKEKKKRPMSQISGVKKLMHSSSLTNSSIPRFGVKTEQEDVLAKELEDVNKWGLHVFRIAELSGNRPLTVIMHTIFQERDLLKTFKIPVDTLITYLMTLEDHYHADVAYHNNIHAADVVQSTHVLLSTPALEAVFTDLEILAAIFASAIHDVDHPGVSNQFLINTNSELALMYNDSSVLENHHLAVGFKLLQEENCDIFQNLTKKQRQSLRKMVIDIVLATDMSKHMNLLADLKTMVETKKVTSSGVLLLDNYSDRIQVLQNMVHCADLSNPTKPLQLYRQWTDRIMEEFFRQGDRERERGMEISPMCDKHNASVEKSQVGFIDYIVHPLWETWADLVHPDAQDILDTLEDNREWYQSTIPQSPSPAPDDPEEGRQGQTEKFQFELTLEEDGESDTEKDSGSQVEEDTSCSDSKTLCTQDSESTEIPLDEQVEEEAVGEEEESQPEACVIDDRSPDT
Description: as §1, §2, §3

PDE4B3 = PDE4B3 (Homo sapiens, UniProt Q07343); type: biochemical
Description: as §1, §2, §3

PDE4D7 = PDE4D7 (Homo sapiens, UniProt Q08499); type: biochemical
Description: as §1, §2, §3

PDE4D2 = PDE4D2 (Homo sapiens, UniProt Q08499); type: biochemical; settings: value generated by extrapolation of data
Description: as §1, §2, §3

PDE4D1 = PDE4D1 (Homo sapiens, UniProt Q08499); type: biochemical
Chain of PDE4D1 (Q08499 1-584 isoform Q08499-4): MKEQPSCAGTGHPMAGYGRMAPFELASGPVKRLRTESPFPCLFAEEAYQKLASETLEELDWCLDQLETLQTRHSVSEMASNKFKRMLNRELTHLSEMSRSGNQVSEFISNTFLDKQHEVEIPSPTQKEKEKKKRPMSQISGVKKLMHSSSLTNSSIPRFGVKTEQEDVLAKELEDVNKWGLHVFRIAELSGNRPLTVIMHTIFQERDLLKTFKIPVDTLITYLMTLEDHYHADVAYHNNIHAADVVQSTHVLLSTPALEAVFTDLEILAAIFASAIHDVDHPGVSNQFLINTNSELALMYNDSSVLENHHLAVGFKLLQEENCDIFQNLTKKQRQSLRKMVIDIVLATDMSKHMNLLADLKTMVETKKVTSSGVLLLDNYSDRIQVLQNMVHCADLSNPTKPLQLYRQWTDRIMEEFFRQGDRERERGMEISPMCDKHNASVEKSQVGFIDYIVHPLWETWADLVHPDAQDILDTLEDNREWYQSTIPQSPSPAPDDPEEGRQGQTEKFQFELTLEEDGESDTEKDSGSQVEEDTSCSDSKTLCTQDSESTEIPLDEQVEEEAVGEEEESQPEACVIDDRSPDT
Description: as §1, §2, §3

PDE4D5 = PDE4D5 (Homo sapiens, UniProt Q08499); type: biochemical
Description: as §1, §2, §3

PDE4A4 = PDE4A4 (Homo sapiens, UniProt P27815); type: biochemical
Chain of PDE4A4 (P27815 whole entry): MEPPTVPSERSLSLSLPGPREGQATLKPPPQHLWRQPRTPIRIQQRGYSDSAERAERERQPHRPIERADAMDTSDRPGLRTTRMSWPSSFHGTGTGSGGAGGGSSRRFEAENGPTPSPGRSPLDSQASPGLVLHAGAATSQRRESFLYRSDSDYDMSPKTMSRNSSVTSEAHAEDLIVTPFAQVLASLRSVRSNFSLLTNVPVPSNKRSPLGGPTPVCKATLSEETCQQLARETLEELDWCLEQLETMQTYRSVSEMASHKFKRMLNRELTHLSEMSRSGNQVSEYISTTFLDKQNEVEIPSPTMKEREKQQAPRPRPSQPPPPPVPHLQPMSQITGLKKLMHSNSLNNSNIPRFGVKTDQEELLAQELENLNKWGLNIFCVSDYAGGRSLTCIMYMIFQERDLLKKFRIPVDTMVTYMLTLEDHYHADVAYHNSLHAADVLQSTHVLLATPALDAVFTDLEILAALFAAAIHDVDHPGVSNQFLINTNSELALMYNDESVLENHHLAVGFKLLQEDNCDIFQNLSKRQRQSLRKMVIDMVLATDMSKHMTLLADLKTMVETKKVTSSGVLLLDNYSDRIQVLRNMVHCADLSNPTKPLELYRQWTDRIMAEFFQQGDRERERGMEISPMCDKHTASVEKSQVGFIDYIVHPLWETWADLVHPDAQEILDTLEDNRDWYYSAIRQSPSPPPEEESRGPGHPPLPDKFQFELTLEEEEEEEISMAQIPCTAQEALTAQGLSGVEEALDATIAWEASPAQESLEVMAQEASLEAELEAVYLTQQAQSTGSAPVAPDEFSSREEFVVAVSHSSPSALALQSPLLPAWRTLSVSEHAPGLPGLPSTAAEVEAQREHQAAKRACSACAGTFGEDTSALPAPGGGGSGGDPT

[1] = test system: conscious, unrestrained ferret; experiment: Emesis study in ferrets; settings: oral, 1, 3, 10 and 30 mg/kg
PDE4A1 = PDE4A1 (Homo sapiens, UniProt P27815)
Chain of PDE4A1 (P27815 1-647 isoform P27815-4): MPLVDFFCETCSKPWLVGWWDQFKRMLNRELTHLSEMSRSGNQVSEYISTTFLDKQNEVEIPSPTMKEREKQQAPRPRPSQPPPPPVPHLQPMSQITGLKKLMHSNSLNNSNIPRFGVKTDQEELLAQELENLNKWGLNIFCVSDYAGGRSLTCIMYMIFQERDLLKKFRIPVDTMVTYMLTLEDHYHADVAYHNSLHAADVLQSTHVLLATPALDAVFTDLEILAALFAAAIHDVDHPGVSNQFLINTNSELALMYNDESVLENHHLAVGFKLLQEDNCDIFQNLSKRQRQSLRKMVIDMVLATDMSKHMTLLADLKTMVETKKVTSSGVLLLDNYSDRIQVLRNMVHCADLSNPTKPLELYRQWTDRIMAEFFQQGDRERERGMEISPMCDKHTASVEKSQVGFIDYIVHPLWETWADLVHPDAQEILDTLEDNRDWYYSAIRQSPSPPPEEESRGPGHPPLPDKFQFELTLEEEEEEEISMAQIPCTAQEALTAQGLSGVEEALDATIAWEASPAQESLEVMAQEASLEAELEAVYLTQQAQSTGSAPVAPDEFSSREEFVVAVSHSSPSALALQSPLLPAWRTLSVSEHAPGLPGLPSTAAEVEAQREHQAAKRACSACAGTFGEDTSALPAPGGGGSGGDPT

[2] = test system: pyoderma gangrenosum with concomitant HS / PASH syndrome; experiment: Clinical study in two patients; type: in vivo, human
Description: The efficacy of the peroral anti-inflammatory PDE4-inhibitor Orismilast was investigated in two patients, one with pyoderma gangrenosum and concomitant HS, the other with PASH syndrome. Patients received a titrated dose of Orismilast of up to 40 mg twice daily for 16 weeks.

[3] = biological target: purified human recombinant PDE4D protein (Homo sapiens, UniProt Q08499); experiment: PDE4D scintillation proximity assay (SPA); type: biochemical
Description: PDE4 enzymatic activity was measured in a scintillation proximity assay using purified human recombinant PDE4D protein.

[4] = test system: TNF-α secretion from human whole blood; experiment: Whole blood TNF-α secretion assay (LPS or SEB stimulated); type: cell-based; settings: 24 h, SEB 1 μg/mL, donor 2
[5] = Case 1, PASH syndrome, 20 mg twice daily
[6] = Case 2, PG and HS, 30 plus 40 mg daily

Chain of PDE4B1 (Q07343 whole entry): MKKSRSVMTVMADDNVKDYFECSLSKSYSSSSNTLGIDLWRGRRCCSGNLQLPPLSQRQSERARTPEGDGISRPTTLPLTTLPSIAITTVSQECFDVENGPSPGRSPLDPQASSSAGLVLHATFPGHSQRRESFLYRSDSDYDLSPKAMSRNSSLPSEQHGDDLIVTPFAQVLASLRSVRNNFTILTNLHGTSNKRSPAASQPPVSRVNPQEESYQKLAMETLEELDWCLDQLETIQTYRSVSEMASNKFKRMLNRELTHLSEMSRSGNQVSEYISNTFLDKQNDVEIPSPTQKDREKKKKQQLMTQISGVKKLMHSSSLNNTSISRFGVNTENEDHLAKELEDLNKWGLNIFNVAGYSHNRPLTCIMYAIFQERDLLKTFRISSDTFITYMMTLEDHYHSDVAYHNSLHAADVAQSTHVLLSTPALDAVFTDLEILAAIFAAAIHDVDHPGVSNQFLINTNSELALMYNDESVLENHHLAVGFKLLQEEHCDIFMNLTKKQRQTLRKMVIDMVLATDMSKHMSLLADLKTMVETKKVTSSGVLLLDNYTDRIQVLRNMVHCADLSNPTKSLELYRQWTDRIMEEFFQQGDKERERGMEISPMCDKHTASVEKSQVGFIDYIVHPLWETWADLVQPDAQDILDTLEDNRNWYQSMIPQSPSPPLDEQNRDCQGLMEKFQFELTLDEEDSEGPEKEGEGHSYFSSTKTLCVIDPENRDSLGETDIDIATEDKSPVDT
Chain of PDE4A10 (P27815 1-825 isoform P27815-6): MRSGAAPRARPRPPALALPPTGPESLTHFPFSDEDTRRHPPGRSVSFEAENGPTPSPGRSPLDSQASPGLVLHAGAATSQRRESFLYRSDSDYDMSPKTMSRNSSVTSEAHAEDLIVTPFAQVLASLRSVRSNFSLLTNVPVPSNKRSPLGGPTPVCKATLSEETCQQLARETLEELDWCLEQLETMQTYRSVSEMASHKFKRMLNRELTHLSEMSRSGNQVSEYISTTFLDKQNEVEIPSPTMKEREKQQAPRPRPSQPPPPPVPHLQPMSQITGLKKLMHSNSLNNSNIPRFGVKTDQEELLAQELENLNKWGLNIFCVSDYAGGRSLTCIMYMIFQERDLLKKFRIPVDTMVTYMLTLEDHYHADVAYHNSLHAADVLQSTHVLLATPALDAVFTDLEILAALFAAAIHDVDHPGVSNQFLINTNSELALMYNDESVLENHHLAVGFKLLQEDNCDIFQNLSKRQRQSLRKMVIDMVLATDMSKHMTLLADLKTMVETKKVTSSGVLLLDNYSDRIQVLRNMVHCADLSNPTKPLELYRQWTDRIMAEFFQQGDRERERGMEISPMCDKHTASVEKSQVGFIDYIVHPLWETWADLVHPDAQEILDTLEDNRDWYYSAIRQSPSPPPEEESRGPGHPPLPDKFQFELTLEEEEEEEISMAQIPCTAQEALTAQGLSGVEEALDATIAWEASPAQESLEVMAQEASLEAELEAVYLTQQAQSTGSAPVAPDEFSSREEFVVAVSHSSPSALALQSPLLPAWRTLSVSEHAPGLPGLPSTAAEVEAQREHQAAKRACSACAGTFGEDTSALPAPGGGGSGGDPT

CCOc1cc([C@@H](CS(C)(=O)=O)N2C(=O)c3cccc(NC(C)=O)c3C2=O)ccc1OC [Apremilast]
Lesion healing (resistant vegetative PG): Complete healing of one lesion and partial healing of another

O=C(Cc1c(Cl)c[n+]([O-])cc1Cl)c1ccc(OC(F)F)c2c1OC1(CCS(=O)(=O)CC1)O2 [Compound (I), 2-(3,5-Dichloro-1-oxido-pyridine-4-yl)-1-(7-difluoro-methoxy-2′,3′,5′,6′-tetrahydro-spiro[1,3-benzodioxole-2, 4′-(4H)-thiopyran-1′,1′-dioxide]-4-yl)ethanone]
IC50 (PDE4A10): 52.3 nM
Increase of TNF-α levels observed at 1 hour after LPS (LPS-induced TNF-α; oral, 1, 3 and 10 mg/kg): attenuated
IC50 (PDE4B1): 15.7 nM
IC50 (PDE4B2): 5.6 nM
IC50 (PDE4D3): 1.75 nM
IC50 (PDE4B3): 2.94 nM
IC50 (PDE4D7): 2.94 nM
IC50 (PDE4D2): 2.03 nM
IC50 (PDE4D1): 8.67 nM
IC50 (PDE4D5): 2.18 nM
IC50 (PDE4A4): 11.3 nM
Health status or body weight gain [1]: not to influence
IC50 (PDE4A1): 16.4 nM
HS lesions [2, 5]: gradually improved
pyoderma wounds [2, 5]: slowly recovered
HS lesions [2, 6]: remained calm
pyoderma wounds [2, 6]: completely healed
EC50 values, PDE4D SPA [3]: 7.5 ng/mL (≈ 0.0147 µM)

O=C(Nc1c(Cl)cncc1Cl)c1ccc(OC(F)F)c(OCC2CC2)c1 [Roflumilast, reference compound]
Increase of TNF-α levels observed at 1 hour after LPS (LPS-induced TNF-α; oral, 1 and 3 mg/kg): attenuated
Health status or body weight gain [1]: did not influence

C[C@@H]1CCN(C(=O)CC#N)C[C@@H]1N(C)c1ncnc2[nH]ccc12 [Tofacitinib]
Emax [4]: 100%

Source: patent US20260069578A1, “TREATMENT OF NEUTROPHILIC DERMATOSES” (UNION THERAPEUTICS A/S, priority 2022, published 2026)
